In US7455861B2, “Angelicae sinensis extracts useful for treatment of cancers” (priority 2004, dated 2008):
Values joined by “and” are separate entries in the source; they are usually repeats but may differ in a detail not shown here. Equal entries are not always repeated. Where two headings read alike, the source gives them in different places.

Experiments:
A549 = test: Cytotoxicity (IC50) on A549; type: cell-based; details: Homo sapiens
Method: (§1) The effects on cell viability after the treatments with different concentrations of the Angelicae sinensis extracts or the active components purified therefrom were evaluated by modified MTT assay in triplicate. Briefly, the cells (5×10^3) were incubated into 96-well plates containing 100 μl of a growth medium. The cells were permitted to adhere for 24 hours, then treated with 100 μl of the herbal extracts or the active components dissolved in the medium. The control contained DMSO of <0.02% (v/v). After 24, 48 and 72 h incubation, the drug-containing medium was replaced by 50 μl of fresh medium, and cells in each well were incubated in 50 μl of 400 μg/ml MTT for 6-8 h. The medium and MTT were removed later and 100 μl of DMSO was added to each well and to the control, to dissolve the soluble components. Absorbance at 550 nm of the solutions was measured with MRX Microtiter Plate Luminometer (DYNEX, USA). The absorbance of untreated cells was considered as 100%. To evaluate the effects of the extracts or the active components on cell growth rate of GBM cells, 5×10^3 exponentially growing cells were treated with different concentrations for 24, 48, or 72 h. The cytotoxicity of each test substance was determined as an IC50 value, which represents the drug concentration required to cause 50% inhibition. All experiments in this study were performed in triplicate.

AT12 = test: Cytotoxicity (IC50) on AT12; type: cell-based; details: Homo sapiens, read-out: Cytotoxicity (IC50) AT12
Method: as §1

CL1-5 = test: Cytotoxicity (IC50) on CL1-5; type: cell-based; details: Homo sapiens
Method: Human tumor cell lines (MCF-7, CL1-5, HT-29, Caco-2), human umbilical vascular endothelial cells (HUVEC), and human dermal fibroblasts (HDF) were tested for sensitivity on Angelicae sinensis extracts, ligustilide, n-butylidenephthalide and its derivatives in vitro. The DBTRG-05MG, BCM, HL-60 and J5 cells were grown in RPMI-1640 medium containing 10% fetal calf serum and 100 ng/ml penicillin and […] streptomycin at 37° C. in a humidified atmosphere with 5% CO2. The G5T/VGH, RG2, Ni 8, SVEC and Balb/3T3 cells were cultured in DMEM with 10% fetal calf serum and 100 ng/ml penicillin and […] streptomycin at 37° C. in 5% CO2. Mycoplasma infection of the culture cells was excluded by PCR screening methods before each experiment.
The effects on cell viability after the treatments with different concentrations of the Angelicae sinensis extracts or the active components purified therefrom were evaluated by modified MTT assay in triplicate. Briefly, the cells (5×10^3) were incubated into 96-well plates containing 100 μl of a growth medium. The cells were permitted to adhere for 24 hours, then treated with 100 μl of the herbal extracts or the active components dissolved in the medium. The control contained DMSO of <0.02% (v/v). […] Absorbance at 550 nm of the solutions was measured with MRX Microtiter Plate Luminometer (DYNEX, USA). The absorbance of untreated cells was considered as 100%. […]

ETS-1 = test: RT-PCR of ETS-1 in HUVEC; type: cell-based, human
MMP-2 = test: RT-PCR of MMP-2 in HUVEC; type: cell-based, human
RG2 cells = test: In situ (intra-cranial) RG2 GBM tumor in rats, MRI tumor volume; type: in vivo, F344 rats; details: BP 300 mg/kg/day s.c. day 4-8, i.c. RG2
Method: (§2) The RG2 cells (rat GBM) and DBTRG-05MG cells (human GBM) were used in animal experiments to monitor the anti-tumor activities of AS-C and BP. Male F344 rat (230-260 g) and male Foxn1 nu/nu mice (10-12 weeks) were obtained from National Laboratory Animal Center (Taipei, Taiwan). All procedures were performed in compliance with the Standard Operation Procedures of the Laboratory Animal Center of Tzu Chi University (Hualien, Taiwan). Animals were kept under pathogen-free conditions and fed a standard laboratory diet. The DBTRG-05MG cells (human GBM) and RG2 cells (rat GBM) were prepared for nude mice xenografts and rat allogenics, respectively.
The cytotoxic effect of AS-C on in situ tumor was determined with RG2 cells. […] Tumor volumes were measured and calculated by 3-T unit MRI (General Electric, Wisconsin, USA) with echo-planar imaging capability (Signa LX 3.8, General Electric, Wisconsin, USA) in Buddhist Tzu Chi General Hospital (Hualien, Taiwan). […]
The rats in two groups (6/group) were implanted i.c. (striatum) with 5×10^4 RG2 cells, and randomly treated with BP (300 mg/kg/day) or vehicle s.c. in the hind flank region after tumor cell implantation at day 4, 5, 6, 7 and 8 for five dosages. Tumor volume was measured and calculated by MRI. […] Finally, the whole tumor sizes (mm^3) were measured and calculated for each group.

DBTRG-05MG cells = test: s.c. xenograft human GBM tumors in nude mice, BP; type: in vivo, Foxn1 nude mice
Method: as §2
Animals (Foxn1 nude mice) in six groups (6/group) were implanted subcutaneously (s.c.) with 1×10^6 DBTRG-05MG cells, and randomly treated with BP s.c. (70, 150, 300, 500, 800 mg/kg/day) or vehicle s.c. at a site remote (>2 cm) from the incubated tumor after tumor cell implantation, at day 4, 5, 6, 7 and 8 for all five dosages. Tumor size was measured every 2 days and tumor volume was calculated. Animals were sacrificed when tumor exceeded 1000 mm^3. Tumor growth was monitored for 3 months for those not sacrificed. Survival rate was followed for up to 200 days.

CCCC=C1OC(=O)c2ccccc21 [BP, n-Butylidenephthalide]
IC50 (A549; Table 2): 8 to 12 µg/mL
IC50 (A549; Table 2, value in parentheses): 42.6 to 63.8 µM
IC50 (AT12): 10 µg/mL to 15 µg/mL and 53.2 µM to 79.8 µM
IC50 (CL1-5; Table 2): > 100 µg/mL
IC50 (CL1-5; Table 2, value in parentheses): > 532 µM
Inhibition RT-PCR ETS-1 (ETS-1): 53.13 µg/mL
Inhibition RT-PCR ETS-1 (ETS-1; value in parentheses): (282.6 μM)
Inhibition RT-PCR MMP-2 (MMP-2): 159.4 µg/mL
Inhibition RT-PCR MMP-2 (MMP-2; value in parentheses): (847.9 μM)
mean tumor volume at day 14 (MRI) (RG2 cells): 46.6±1.8 mm^3
mean tumor volume at day 16 (MRI) (RG2 cells): 91.68±8.3 mm^3
tumor growth compared with untreated group (DBTRG-05MG cells; BP s.c. 70-800 mg/kg/day day 4-8, dose dependent, p<0.005 for 300 mg/kg): significant suppressions of tumor growth
survival period of nude mice (DBTRG-05MG cells; BP s.c. 70-800 mg/kg/day, followed for up to 200 days): up to 200 days
